# Target: T1, estrogen receptor (Homo sapiens, UniProt P03372)
# T1 sequence (P03372 1-595): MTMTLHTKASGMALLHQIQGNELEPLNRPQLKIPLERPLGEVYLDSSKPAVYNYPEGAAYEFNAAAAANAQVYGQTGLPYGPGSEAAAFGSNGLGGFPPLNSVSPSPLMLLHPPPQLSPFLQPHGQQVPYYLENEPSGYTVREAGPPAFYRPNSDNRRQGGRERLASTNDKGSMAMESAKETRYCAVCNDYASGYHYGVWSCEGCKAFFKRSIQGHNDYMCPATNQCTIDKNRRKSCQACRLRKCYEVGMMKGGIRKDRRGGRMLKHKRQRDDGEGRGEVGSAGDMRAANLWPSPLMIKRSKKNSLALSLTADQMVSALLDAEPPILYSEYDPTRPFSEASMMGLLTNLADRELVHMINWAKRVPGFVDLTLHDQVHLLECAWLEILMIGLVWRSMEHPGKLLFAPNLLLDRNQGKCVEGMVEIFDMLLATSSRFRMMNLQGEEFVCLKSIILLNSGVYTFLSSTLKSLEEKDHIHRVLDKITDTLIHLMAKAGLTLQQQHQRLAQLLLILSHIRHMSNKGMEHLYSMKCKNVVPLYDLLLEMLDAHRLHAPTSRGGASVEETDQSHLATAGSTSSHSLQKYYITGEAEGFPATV
# Assay: Western blot, estrogen receptor downregulation in MCF-7:5C cells
# Assay type: cell-based
# Design: Whole-cell extracts of cultured cells were prepared in lysis buffer; endogenous in cells
# Details: 24 hours, 1 nM to 1 uM
# Protocol: (§1) Whole-cell extracts of cultured cells were prepared in lysis buffer (200 mmol/L Tris, 1% Triton X-100, 5 mmol/L EDTA) with protease and phosphatase inhibitor cocktails (1:50, both from Sigma-Aldrich) after scraping from the culture plates. Protein concentration was measured using the Bradford method (Bio-Rad). Proteins were separated under denaturing conditions and blotted onto nitrocellulose membrane (Bio-Rad) using a wet transfer system (Bio-Rad). Images of blots were acquired on a Bio-Rad ChemiDoc System following incubation with SuperSignal West Dura luminol solution (Thermo Fisher Scientific).
# (§2) Fulvestrant at 1 uM concentration was assayed as a positive control.
row,SMILES,estrogen receptor downregulation (western blot)
1,"O=C(O)/C=C/c1ccc(-c2c(C(=O)c3ccc(O)cc3)sc3cc(O)ccc23)cc1 [Compound 1, (E)-3-(4-(6-hydroxy-2-(4-hydroxybenzoyl)benzo[b]thiophen-3-yl)phenyl)acrylic acid]",estrogen receptor downregulation

# Tested on: MCF7:5C (Tamoxifen Resistant) cells
# Assay: Cell viability of MCF7:5C (tamoxifen resistant), DNA content growth inhibition
# Assay type: cell-based
# Details: 144 h, Table 1, data normalized to 1 uM fulvestrant, day 6, read-out: MCF-5C growth inhibition IC50
# Protocol: Assays Cell Viability of MCF7:5C (Tamoxifen Resistant)
# The DNA content of the cells was determined as previously described using a Fluorescent DNA Quantitation kit (cat. No. 170-2480; Bio-Rad Laboratories, Hercules, Calif.). Briefly, five thousand cells were plated per well in 96-well plates, and treatment with indicated concentrations of compounds was started at the same time in each well. On day 6, the cells in the plates were lysed and frozen at −80° C. To measure the total DNA in each well, the plates were allowed to warm to room temperature, incubated with Hoechst dye, and mixed well. The fluorescence was measured using a Synergy H4 Hybrid Multi-Mode Microplate Reader. For each analysis, six replicate wells were used and at least three independent experiments were performed.
# FIG. 1 is a graph of the efficacy of Compound 1 against tamoxifen-resistant MCF-7:5 cells normalized to 1 uM fulvestrant. The y-axis is cell survival as a percent of the control and the x-axis is the concentration of the compound measured in nanomolar units.
row,SMILES,IC50 [nM]
1,"Cc1cc(F)cc(C)c1C(=O)c1sc2cc(O)ccc2c1-c1ccc(/C=C/C(=O)O)cc1 [Compound 8, (E)-3-(4-(2-(4-fluoro-2,6-dimethylbenzoyl)-6-hydroxybenzo[b]thiophen-3-yl)phenyl)acrylic acid]",> 200
2,"Cc1ccccc1C(=O)c1sc2cc(O)ccc2c1-c1ccc(/C=C/C(=O)O)cc1 [Compound 6, (E)-3-(4-(6-hydroxy-2-(2-methylbenzoyl)benzo[b]thiophen-3-yl)phenyl)acrylic acid]",> 200
3,"Cc1ccc(F)cc1C(=O)c1sc2cc(O)ccc2c1-c1ccc(/C=C/C(=O)O)cc1 [Compound 7, (E)-3-(4-(2-(5-fluoro-2-methylbenzoyl)-6-hydroxybenzo[b]thiophen-3-yl)phenyl)acrylic acid]",> 200
4,"O=C(O)/C=C/Oc1ccc(-c2c(C(=O)c3ccc(O)cc3)sc3cc(O)ccc23)cc1 [Compound 2, (E)-3-(4-(6-hydroxy-2-(4-hydroxybenzoyl)benzo[b]thiophen-3-yl)phenoxy)acrylic acid]",< 10
5,"O=C(O)/C=C/c1ccc(-c2c(C(=O)c3ccc(O)cc3)sc3cc(O)ccc23)cc1 [Compound 1, (E)-3-(4-(6-hydroxy-2-(4-hydroxybenzoyl)benzo[b]thiophen-3-yl)phenyl)acrylic acid]",< 100
6,"Cc1cc(F)ccc1C(=O)c1sc2cc(O)ccc2c1-c1ccc(/C=C/C(=O)O)cc1 [Compound 9, (E)-3-(4-(2-(4-fluoro-2-methylbenzoyl)-6-hydroxybenzo[b]thiophen-3-yl)phenyl)acrylic acid]",> 200
7,"Cc1cc(C)cc(C(=O)c2sc3cc(O)ccc3c2-c2ccc(/C=C/C(=O)O)cc2)c1 [Compound 11, (E)-3-(4-(2-(3,5-dimethylbenzoyl)-6-hydroxybenzo[b]thiophen-3-yl)phenyl)acrylic acid]",> 200
8,"Cc1cccc(C)c1C(=O)c1sc2cc(O)ccc2c1-c1ccc(/C=C/C(=O)O)cc1 [Compound 10, (E)-3-(4-(2-(2,6-dimethylbenzoyl)-6-hydroxybenzo[b]thiophen-3-yl)phenyl)acrylic acid]",> 200
9,"O=C(O)/C=C/c1ccc(-c2c(C(=O)c3ccccc3Cl)sc3cc(O)ccc23)cc1 [Compound 4, (E)-3-(4-(2-(2-chlorobenzoyl)-6-hydroxybenzo[b]thiophen-3-yl)phenyl)acrylic acid]",> 200
10,"O=C(O)/C=C/c1ccc(-c2c(C(=O)c3ccccc3C(F)(F)F)sc3cc(O)ccc23)cc1 [Compound 5, (E)-3-(4-(6-hydroxy-2-(2-(trifluoromethyl)benzoyl)benzo[b]thiophen-3-yl)phenyl)acrylic acid]",> 200
11,"O=C(O)/C=C/c1ccc(-c2c(C(=O)c3ccccc3F)sc3cc(O)ccc23)cc1 [Compound 3, (E)-3-(4-(2-(2-fluorobenzoyl)-6-hydroxybenzo[b]thiophen-3-yl)phenyl)acrylic acid]",> 200

# Same assay, conditions: 144 h, Table 2, data normalized to 1 uM fulvestrant, day 6, read-out: MCF-5C growth inhibition IC50
row,SMILES,IC50 [nM]
1,"Cc1cc(O)ccc1C(=O)c1sc2cc(O)ccc2c1-c1ccc(/C=C/C(=O)O)cc1 [Compound 14, (E)-3-(4-(6-hydroxy-2-(4-hydroxy-2-methylbenzoyl)benzo[b]thiophen-3-yl)phenyl)acrylic acid]",> 200
2,"Cc1cc(OC(F)(F)F)ccc1C(=O)c1sc2cc(O)ccc2c1-c1ccc(/C=C/C(=O)O)cc1 [Compound 13, (E)-3-(4-(6-hydroxy-2-(2-methyl-4-(trifluoromethoxy)benzoyl)benzo[b]thiophen-3-yl)phenyl)acrylic acid]",> 200
3,"O=C(O)/C=C/c1ccc(-c2c(C(=O)C3CCCCC3)sc3cc(O)ccc23)cc1 [Compound 12, (E)-3-(4-(2-(cyclohexanecarbonyl)-6-hydroxybenzo[b]thiophen-3-yl)phenyl)acrylic acid]",< 200
4,"Cc1cc(O)cc(C)c1C(=O)c1sc2cc(O)ccc2c1-c1ccc(/C=C/C(=O)O)cc1 [Compound 15, (E)-3-(4-(6-hydroxy-2-(4-hydroxy-2,6-dimethylbenzoyl)benzo[b]thiophen-3-yl)phenyl)acrylic acid]",> 200

# Target: T1, estrogen receptor
# Assay: Western blot, estrogen receptor downregulation in T47D:neo cells
# Assay type: cell-based
# Design: Whole-cell extracts of cultured cells were prepared in lysis buffer; endogenous in cells; host or cells: T47D:neo
# Details: 24 hours, 1 nM to 1 uM
# Protocol: as §1, §2
row,SMILES,estrogen receptor downregulation (western blot)
1,"O=C(O)/C=C/c1ccc(-c2c(C(=O)c3ccc(O)cc3)sc3cc(O)ccc23)cc1 [Compound 1, (E)-3-(4-(6-hydroxy-2-(4-hydroxybenzoyl)benzo[b]thiophen-3-yl)phenyl)acrylic acid]",estrogen receptor downregulation

# From US10703747B2, “Benzothiophene-based selective mixed estrogen receptor downregulators” (The Board of Trustees of the University of Illnois, priority 2016, dated 2020)
